Source: US6974820B2, “Methods for treating urinary incontinence and other disorders using trospium” (Bridge Pharma, Inc., priority 2002, dated 2005)
Where two headings read alike, the source gives them in different places.

Legend:
[1] = target: T1, human recombinant muscarinic receptor M-3 (Homo sapiens, UniProt P20309); test: biochemical; type: binding
T1 construct: expressed in transfected cells; host or cells: SF9 insect cells (membranes)

[2] = target: T2, human recombinant muscarinic receptor M-1 (Homo sapiens, UniProt P11229); test: biochemical; type: binding
T2 construct: expressed in transfected cells; host or cells: SF9 insect cells (membranes)
T2 sequence (P11229 1-460): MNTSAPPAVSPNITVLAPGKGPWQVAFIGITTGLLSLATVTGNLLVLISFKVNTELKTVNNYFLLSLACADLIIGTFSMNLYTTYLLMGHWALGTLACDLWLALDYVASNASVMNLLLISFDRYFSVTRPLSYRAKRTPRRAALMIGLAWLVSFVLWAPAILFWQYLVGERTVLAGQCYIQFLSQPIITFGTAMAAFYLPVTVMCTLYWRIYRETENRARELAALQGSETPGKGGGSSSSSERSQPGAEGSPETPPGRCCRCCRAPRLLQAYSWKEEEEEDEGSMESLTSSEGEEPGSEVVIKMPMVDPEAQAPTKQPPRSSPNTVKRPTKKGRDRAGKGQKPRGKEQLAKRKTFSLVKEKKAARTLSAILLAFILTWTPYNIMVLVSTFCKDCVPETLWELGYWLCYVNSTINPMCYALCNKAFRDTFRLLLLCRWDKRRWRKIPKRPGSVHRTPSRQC

[3] = target: T3, human recombinant muscarinic receptor M-4 (Homo sapiens, UniProt P08173); type: binding
T3 construct: expressed in transfected cells; host or cells: SF9 insect cells (membranes)
T3 sequence (P08173 1-479): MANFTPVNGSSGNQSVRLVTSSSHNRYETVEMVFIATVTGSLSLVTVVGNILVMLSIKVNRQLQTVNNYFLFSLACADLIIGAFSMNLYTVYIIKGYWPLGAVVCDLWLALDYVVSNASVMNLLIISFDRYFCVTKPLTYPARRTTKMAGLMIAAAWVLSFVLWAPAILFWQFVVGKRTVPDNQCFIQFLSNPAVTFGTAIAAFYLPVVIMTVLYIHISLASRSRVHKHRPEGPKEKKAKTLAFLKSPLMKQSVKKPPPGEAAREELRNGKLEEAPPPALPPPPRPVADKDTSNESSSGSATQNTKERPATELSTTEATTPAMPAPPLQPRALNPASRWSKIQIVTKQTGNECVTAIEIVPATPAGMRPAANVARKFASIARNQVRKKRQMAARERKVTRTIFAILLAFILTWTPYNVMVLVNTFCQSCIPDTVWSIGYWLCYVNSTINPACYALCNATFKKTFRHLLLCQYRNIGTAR

[4] = tested on: QTc interval of the ECG; test: Cardiac side effects: QTc interval of the ECG in anesthetized guinea pigs; conditions: for Prolongation of the QTc interval of the ECG (in words): intravenous infusion; for ΔQTc (%): intravenous infusion over 30 min
[5] = target: T4, CYP 2D6 (Homo sapiens, UniProt P10635); test: biochemical
[6] = target: T4, CYP 2D6

T4 sequence (P10635 whole entry): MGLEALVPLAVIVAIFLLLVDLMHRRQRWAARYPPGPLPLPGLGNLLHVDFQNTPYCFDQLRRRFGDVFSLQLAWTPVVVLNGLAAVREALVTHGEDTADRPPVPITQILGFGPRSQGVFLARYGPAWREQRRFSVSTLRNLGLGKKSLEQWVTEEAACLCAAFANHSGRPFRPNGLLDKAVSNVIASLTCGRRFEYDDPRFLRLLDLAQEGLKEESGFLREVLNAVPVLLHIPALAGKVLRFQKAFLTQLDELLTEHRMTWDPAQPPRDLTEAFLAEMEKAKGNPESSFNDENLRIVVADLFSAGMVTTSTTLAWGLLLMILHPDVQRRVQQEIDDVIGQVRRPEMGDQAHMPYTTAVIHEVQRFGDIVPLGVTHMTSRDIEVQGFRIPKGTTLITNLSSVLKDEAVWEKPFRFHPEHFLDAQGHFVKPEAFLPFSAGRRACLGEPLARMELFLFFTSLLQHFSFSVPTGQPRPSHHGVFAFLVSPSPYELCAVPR
T1 sequence (P20309 whole entry): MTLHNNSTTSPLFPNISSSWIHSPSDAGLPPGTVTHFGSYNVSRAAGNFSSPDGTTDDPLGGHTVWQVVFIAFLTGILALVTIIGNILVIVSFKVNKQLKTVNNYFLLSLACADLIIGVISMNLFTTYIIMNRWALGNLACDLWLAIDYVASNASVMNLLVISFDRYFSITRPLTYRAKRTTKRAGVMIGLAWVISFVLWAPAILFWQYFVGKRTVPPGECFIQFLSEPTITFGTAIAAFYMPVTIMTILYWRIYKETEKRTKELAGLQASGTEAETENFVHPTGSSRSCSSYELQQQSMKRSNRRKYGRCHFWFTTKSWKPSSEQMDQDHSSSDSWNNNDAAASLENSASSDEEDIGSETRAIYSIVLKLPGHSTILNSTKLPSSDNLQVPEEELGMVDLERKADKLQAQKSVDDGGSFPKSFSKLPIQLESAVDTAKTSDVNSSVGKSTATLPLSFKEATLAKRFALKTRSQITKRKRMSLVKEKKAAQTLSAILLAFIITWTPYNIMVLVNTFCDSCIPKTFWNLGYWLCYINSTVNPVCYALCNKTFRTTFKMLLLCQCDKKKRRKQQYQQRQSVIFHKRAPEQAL

Inhibition of CYP 2D6 isoenzyme metabolism (in words) [6]	Compound	Ki [1]	Ki [2]	Ki [3]	Prolongation of the QTc interval of the ECG (in words) [4]	ΔQTc (%) [4]	IC50 [5]	Ki ([3]; membranes of SF9 cells expressing human recombinant receptor, read-out: Affinity (negative logarithm of the dissociation constant Ki) M-4 (converted))
–	O=C(O[C@H]1C[C@H]2CC[C@@H](C1)[N+]21CCCC1)C(O)(c1ccccc1)c1ccccc1 [Trospium, 3α-hydroxy-spiro[1αH,5αH-nortropane-8,1′-pyrrolidinium] chloride benzilate]	0.501 nM	0.794 nM	1 nM	no effects	−2 ± 1%	~20000 nM	–
–	Cc1ccc(O)c([C@H](CCN(C(C)C)C(C)C)c2ccccc2)c1 [Tolterodine]	–	1.58 nM	–	statistically significant prolongation	+16 ± 1%	–	20 nM
potently inhibit	CCN(CC)CC#CCOC(=O)C(O)(c1ccccc1)C1CCCCC1 (stereo not shown) [Oxybutynin]	–	–	–	statistically significant prolongation	+12 ± 2%	–	–
–	CC(CC(c1ccccc1)c1ccccc1)NC(C)(C)C (stereo not shown) [Terodiline]	–	–	–	statistically significant prolongation	+11 ± 1%	–	–
–	CC(C)(C)c1ccc(C(O)CCCN2CCC(C(O)(c3ccccc3)c3ccccc3)CC2)cc1 (stereo not shown) [terfenadine]	–	–	–	caused QT-prolongation	–	–	–
